Reference: patent US20260240878A1, “PTP1B/TC-PTP DUAL INHIBITORS AND PROTEIN DEGRADERS” (Purdue Research Foundation, priority 2023, published 2026)
*1 amine or outer side, *2 acyl side, *3 side chain or, on linkers, in order; H or OH if unused. Where a SMILES comes first, the peptide text is derived from it. [ ]: non-standard residue; d: D form. The star is where a group is joined. NHCH2(1,3-C6H4)CH2CO = O=C(Cc1cccc(CN[*:1])c1)[*:2]; F2Pmp = N[C@@H](Cc1ccc(C(F)(F)P(=O)(O)O)cc1)C(=O)O; Phenylacetyl(4-OH,3-OMe) = COc1cc(CC(=O)*)ccc1O; Benzoyl(3-Br,4-Me) = Cc1ccc(C(=O)*)cc1Br; X1 = Cc1ncsc1-c1ccc([C@H](C)N*)cc1; Hyp = O=C(O)[C@@H]1C[C@@H](O)CN1; Tle = CC(C)(C)[C@H](N)C(=O)O

Experiments:
[1] = system: CD8+ naïve T-cells; assay: Degradation, STAT phosphorylation and activation in CD8+ naive T-cells (flow cytometry); type: cell-based, mouse
Description: In (A) purified CD8^+ naïve T-cells from control (Ptpn2^fl/fl) and Lck-Cre; Ptpn2^fl/fl mice (n=3/genotype/condition) were incubated for 48 hours with IL-7 in the presence or absence of compound 47 as indicated, and TC-PTP and PTP1B protein levels were monitored by flow cytometry. (B) show vehicle-treated control, TCPTP-deficient Lck-Cre; Ptpn2^fl/fl and compound 47-treated control naïve CD8^+ T-cells were stimulated with plate-bound α-CD3/α-CD28 for 48 hours to promote T-cell activation. Basal STAT-1 (p(Y701) STAT-1) and STAT-5 (p(Y694) STAT-5) phosphorylation were assessed by flow cytometry. (C) cell size (FSC-A) and the T-cell activation markers CD25, CD69 and CD44 (MFI: mean fluorescence intensities) were measured by flow cytometry. (dot (●) represents Ptpn2^fl/fl+Vehicle, square (▪) represents Lck-Cre; Ptpn2^fl/fl+Vehicle, triangle (▴) represents Ptpn2^fl/fl+ compound 47).
Beyond attenuating JAK/STAT signaling in tumor cells, PTP1B and TC-PTP also have fundamental roles in T-cells, and the deletion of either TC-PTP or PTP1B in T-cells can markedly enhance anti-tumor immunity. TC-PTP attenuates T-cell receptor (TCR) signaling by dephosphorylating and inactivating the Src family kinase LCK. TC-PTP attenuates JAK/STAT1/5 signaling in response to cytokines such as IFNs and IL-2, which are required for the activation, clonal expansion, and differentiation of T-cells. The deletion of TC-PTP in T-cells enhances immunosurveillance and inhibits the growth of syngeneic tumors in mice and the anti-tumor efficacy of adoptively transferred T-cells. PTP1B also negatively regulates IL-2-induced JAK/STAT5 signaling in T-cells, and its deletion or inhibition in vivo can enhance the anti-tumor activity of T-cells. Accordingly, the impact of targeting PTP1B and TC-PTP with compound 47 on JAK/STAT signaling and the activation of T-cells after crosslinking the TCR was assessed. The effects of compound 47 were compared with the genetic deletion of TC-PTP (encoded by Ptpn2) in T-cells (Lck-Cre; Ptpn2^fl/fl). First, the impact of compound 47 on TC-PTP and PTP1B protein levels was assessed by flow cytometry using validated antibodies. […] The degradation of TC-PTP and PTP1B was accompanied by a more than 3-fold increase in STAT1 Y701 phosphorylation and a 2-fold increase in STAT5 Y694 phosphorylation detected after crosslinking the TCR with α-CD3/α-CD28 to activate T-cells (FIG. 9B). Importantly, the promotion of pSTAT1/Y701 and pSTAT5/Y694 by compound 47 treatment exceeded that achieved by the genetic deletion of TC-PTP, consistent with compound 47 targeting both TC-PTP and PTP1B to enhance signaling. […] CD25 (IL-2 receptor a), and CD69 (FIG. 9C). […] This was not necessarily a surprise since TC-PTP, but not PTP1B, attenuates TCR signaling in naive CD8^+ T-cells.

[2] = system: PTP1B and TC-PTP; assay: PTP1B/TC-PTP degradation and pJAK1/2 elevation in MEF cells; type: cell-based, mouse; conditions: 500 nM, 16 hours
Description: Deletion of TC-PTP or PTP1B abolished the compound 47-induced phosphorylation of the TC-PTP substrate JAK1 or the PTP1B substrate JAK2. Thus, compound 47 efficiently amplifies cellular […] signaling by degrading PTP1B and TC-PTP. U2OS cells were treated with DMSO or 0.2 μM compound 47 for 16 hours and stimulated with 20 ng/ml IFN-γ for 30 minutes. […] DAPI was used to stain the cell nucleus.
The target engagement by compound 47 inside the cell was ascertained. As negative regulators of IFN-γ signaling, PTP1B and TC-PTP dephosphorylate JAK2 at Y1007/Y1008 and JAK1 at Y1034/Y1035, respectively. In addition, TC-PTP can also directly dephosphorylate STAT family members, including STAT1 and STAT3, in the nucleus to comprehensively attenuate IFN signaling. […] In contrast, the addition of compound 47 to PTP1B^−/− MEF cells further increased the IFN-γ mediated TC-PTP substrate pJAK1/Y1034/Y1035 level with no alteration of PTP1B substrate JAK2/Y1007/Y1008 phosphorylation.

[3] = after crosslinking the TCR with α-CD3/α-CD28

Q: For `COc1cc(CC(=O)N[C@@H](Cc2ccccc2)C(=O)N[C@@H](Cc2ccc(C(F)(F)P(=O)(O)O)cc2)C(=O)N[C@@H](CCCCNC(=O)c2ccc(C)c(Br)c2)C(=O)NCc2cccc(CC(=O)N[C@H](C(=O)N3C[C@H](O)C[C@H]3C(=O)N[C@@H](C)c3ccc(-c4scnc4C)cc3)C(C)(C)C)c2)ccc1O` [Compound 47, ((4-((S)-3-(((S)-6-(3-bromo-4-methylbenzamido)-1-((3-(2-(((S)-1-((2S,4R)-4-hydroxy-2-(((S)-1-(4-(4-methylthiazol-5-yl)phenyl)ethyl)carbamoyl)pyrrolidin-1-yl)-3,3-dimethyl-1-oxobutan-2-yl)amino)-2-oxoethyl)benzyl)amino)-1-oxohexan-2-yl)amino)-2-((S)-2-(2-(4-hydroxy-3-methoxyphenyl)acetamido)-3-phenylpropanamido)-3-oxopropyl)phenyl)difluoromethyl)phosphonic Acid] ({Phenylacetyl(4-OH,3-OMe)}-F[F2Pmp]K(Benzoyl(3-Br,4-Me))[NHCH2(1,3-C6H4)CH2CO][Tle][Hyp]-X1), which “TCR-induced activation of T-cells (cell size, CD44, CD25, CD69)” value [1] is on record?
A: enhanced the TCR-induced activation of T-cells

Q: What about the “TC-PTP and PTP1B protein levels in T-cells” value ([1]; 48 hr treatment) of the same compound?
A: effectively degraded

Q: And the “increase in STAT1 Y701 phosphorylation” value [1, 3]?
A: more than 3 fold

Q: What about the “increase in STAT5 Y694 phosphorylation” value [1, 3] of the same compound?
A: 2 fold

Q: What about the “IFN-γ stimulated JAK2 and JAK1 phosphorylation” value [2] of the same compound?
A: augmented

Q: And the “PTP1B and TC-PTP removal” value [2]?
A: complete removal
